Patent publication US20080312162A1, “Methods and Compositions for Enzyme-Specific Activation of Carbohydrate-Conjugated Prodrugs” (THE OHIO STATE UNIVERSITY, priority 2004, published 2008)
“And” between values parts separate entries of the source, which are not always exact repeats. Equal values may be shown once. “Also recorded” adds a separate entry of the source.

Assays:
Assay type in all cases: cell-based, human
MCF7 = test: Anticancer activity (MTS assay) in MCF7 cells; conditions: 72 hours
Procedure: (§1) The anticancer activities of six prodrug conjugates synthesized by the method were tested for anticytostatic activity by using the MTS assay to show suppression of cell growth. Four different human cell lines, including colorectal carcinoma cells (SW620, HT 29), breast cancer cells (MCF7), and leukemia cells (K562), were tested using the MTS assay. Each compound was tested at concentration 1-25,000 nM. GA also was tested for comparison. The inhibition of cell growth was calculated compared to control cells without drug treatment. For purposes of this description of in vitro cell culture testing, drug concentrations are given for the molar concentrations of the chemotherapeutic agents present in the media at the initiation of the test. Skilled artisans are aware of the various conversion factors necessary to convert media concentrations to tissue concentration targets and the dose necessary to achieve such a dose.
(§2) Cell Culture. Cell lines SW620, HT29, MCF7, and K562 were cultured in RPMI 1640 (Invitrogen, Carlsbad, Calif., USA) supplemented with 10% fetal bovine serum (FBS), 1% non-essential amino acid and Penicillin (100 u/mL) Streptomycin (100 ug/mL) in a humidified atmosphere of 5% CO2 and 95% air at 37° C. The culture mediums were changed every 2-3 days.
(§3) Anticancer activity of compound (24-29) (MTS assay). Cells (2,000-10,000) were seeded in 96 well plates in RPMI-1640 and incubated for 24 hours. The exponentially growing cancer cells were incubated with various concentrations of compounds for 72 hours at 37° C. (5% CO2, 95% humidity).

K562 [1] = test: Anticancer activity (MTS assay) in K562 cells; conditions: 72 hours
Procedure: as §1, §2, §3

HT29 = test: Anticancer activity (MTS assay) in HT29 cells
Procedure: as §1, §2, §3

SW620 = test: Anticancer activity (MTS assay) in SW620 cells
Procedure: as §1, §2, §3

various cancer cells = test: Anticancer activity (MTS assay), pooled statements on various cancer cells; conditions: no added enzyme
Procedure: as §1, §3

SW620, HT29 and K562 = test: Beta-galactosidase cleavage assay; conditions: 2 units beta-galactosidase
Procedure: Thus, galactose-GA and lactose-GA conjugates were exposed to beta-galactosidase and observed for enhancement of anticancer activities. […] For compounds 25-29, 1 μM concentration of prodrug compounds were used. GA (0.01 μM), compound 24 (0.1 μM) and beta-galactosidase (2 units) was used in the cell culture. Each bar in the graphs shown is the average of three experiments. Relative percentage of cell growth was calculated compared to control cells in the absence of beta-galactosidase and drug solution. Cell lines SW620, HT29 and K562 were exposed to 2 units of beta-galactosidase and then treated individually with 1 μM of compounds 25-29. At this concentration, galactose-geldanamycin conjugates alone were relatively devoid of anticancer activity.
Beta-galactosidase cleavage assay. Cells (2,000-10,000) were seeded in 96 well plates in RPMI-1640 and incubated for 24 hours. The exponentially growing cancer cells were incubated with 2 units of beta-galactosidase for 10 minutes. The same concentration solutions of various compounds (25-29) were added to each well. The control cells were exposed to fresh medium only or to beta-galactosidase alone. After incubated for 72 hours at 37° C. (5% CO2, 100% humidity), the cell growth was measured with MTS assay as described above. The percentages of cell growth of tested compounds vs. control were calculated by measuring the absorbance at 490 nm.

K562 [2] = test: Beta-glucosidase inhibition assay (DMDP) in K562 cell line; conditions: for Cell growth relative to untreated cells: higher concentration (0.4 μM)
Excerpt: Similar results showing preferential activation of glucose conjugates relative to galactose or lactose conjugates were obtained in other cancer cell lines. The glucose-conjugated compound is apparently cleaved by native glucosidase inside of the cancer cells resulting in release of a biologically active anti-cytostatic compound. The cleavage of glucose conjugates by an enzymatic pathway to release an active drug is shown by a beta-glucosidase inhibition assay. FIG. 5 is a graph showing the results of a beta-glucosidase inhibition assay studied in K562 cell line. Two different concentrations of prodrug were tested in this experiment. For compound 24, 17-demethoxy-17-[(2-β-glucopyranosylethyl)amino]geldanamycin], the higher concentration is 0.4 μM and the lower concentration is 0.2 μM. […] Percentages of cell growth were calculated compared to control cells in the absence of beta-glucosidase inhibitor and prodrug solution. Each bar represents the average of three experiments. […] While the higher concentration of compound 24 limits cells growth to about 20% of untreated cells, when the beta-glucosidase inhibitor DMDP is added, the high concentration of compound 24 only reduces growth to about 60% that of untreated cells.
Beta-glucosidase Inhibition assay. To verify if the cleavage of sugar moieties from compound 24 is crucial for the anticancer activity, we performed the β-glucosidase inhibition study in K562 cell line. The K562 cells were treated with β-glucosidase inhibitor 2, 5-dihydroxymethyl-3,4-dihydroxypyrrolidine (DMDP) solution (100 μM) for 10 minutes before adding carbohydrate-geldanamycin conjugates. The concentrations of glucose-GA were 0.4 μM and 0.2 μM, respectively. […] From the structures of compounds 24 and 25, the only difference between these two compounds is the sugar moiety, which is glucose in compound 24 and galactose in compound 25.
Beta-Glucosidase inhibition assay for compound 2425. […] The exponentially growing cancer cells were incubated in three different conditions (cells with different concentration of test compounds and DMDP, cells with different concentration of test compounds only, and cell with DMDP only) for 72 hours at 37° C. (5% CO2, 100% humidity). The control cells were exposed to fresh medium only. Then, the anticancer activities of compound 24, 25 were measured with MTS assay as described above. The percentages of cell growth for tested compounds vs. control cells were calculated by the absorbance at 490 nm.

| SMILES | IC50 (MCF7) | IC50 (K562 [1]) | IC50 (HT29; 72 hours) | IC50 (SW620; 72 hours) | further results |
| --- | --- | --- | --- | --- | --- |
| COC1=C2C[C@@H](C)C[C@H](OC)[C@H](O)[C@@H](C)/C=C(\C)[C@H](OC(N)=O)[C@@H](OC)/C=C\C=C(/C)C(=O)NC(=CC1=O)C2=O [GA, Geldanamycin, reference compound] | – | – | – | – | IC50 (MCF7; Homo sapiens): 6.5 nM; IC50 (K562 [1]; Homo sapiens): 22.1 nM; IC50 (HT29; Homo sapiens, HT-29, 72 hours): 24.5 nM; IC50 (SW620; Homo sapiens, SW-620, 72 hours): 6.2 nM |
| COC1C=CC=C(C)C(=O)NC2=CC(=O)C(NCCOC3OC(CO)C(O)C(O)C3O)=C(CC(C)CC(OC)C(O)C(C)C=C(C)C1OC(N)=O)C2=O (stereo not drawn) [compound 24, 17-demethoxy-17-[(2-β-glucopyranosylethyl)amino]geldanamycin] | 754 nM | 381 nM | 105 nM | 70 nM and 70.2 nM | Anticytostatic activity against tumor cells (various cancer cells): showed anticytostatic activity; Anticancer activity IC50 in various cancer cells (various cancer cells; various cancer cells): within the nanomolar range; IC50 (various cancer cells; various cancer cells): 70.2 to 381 nM; Effect of beta-galactosidase treatment on activity (SW620, HT29 and K562): did not affect biological activity; also recorded: relatively unaffected; Effect of beta-galactosidase treatment on activity (SW620, HT29 and K562; listed as glucose-GA): not affected; Decrease of activity after treatment with DMDP (K562 [2]; DMDP 100 μM): 3 fold; Effect of beta-glucosidase inhibitor DMDP on activity (K562 [2]; DMDP 100 μM, listed as glucose-GA): completely abolished; Cell growth relative to untreated cells (K562 [2]; with beta-glucosidase inhibitor DMDP (100 μM)): about 60%; Cell growth relative to untreated cells (K562 [2]; without DMDP): about 20% |
| COC1C=CC=C(C)C(=O)NC2=CC(=O)C(NCCOC3OC(CO)C(O)C(O)C3O)=C(CC(C)CC(OC)C(O)C(C)C=C(C)C1OC(N)=O)C2=O (stereo not drawn) [compound 25, 17-demethoxy-17-[(2-β-galactopyranosylethyl)amino]geldanamycin] | > 25000 nM | > 23000 nM | > 14000 nM | – | Effect of beta-glucosidase inhibitor DMDP on activity (K562 [2]; DMDP 100 μM): did not affect; also recorded: relatively unaffected |
| OCC1NC(CO)C(O)C1O (centres unmarked) [DMDP, 2,5-dihydroxymethyl-3,4-dihydroxypyrrolidine, reference compound] | – | – | – | – | Effect on cell growth (K562 [2]; DMDP alone): did not have any effect on cell growth |
| COC1C=CC=C(C)C(=O)NC2=CC(=O)C(NCCCOC3OC(CO)C(O)C(O)C3O)=C(CC(C)CC(OC)C(O)C(C)C=C(C)C1OC(N)=O)C2=O (centres unmarked) [compound 26] | > 12000 nM | > 14000 nM | > 6000 nM | > 14000 nM | – |
| COC1C=CC=C(C)C(=O)NC2=CC(=O)C(NCCCCCOC3OC(CO)C(O)C(O)C3O)=C(CC(C)CC(OC)C(O)C(C)C=C(C)C1OC(N)=O)C2=O (centres unmarked) [compound 27] | > 17000 nM | > 19000 nM | > 13000 nM | > 13000 nM | – |
| COC1C=CC=C(C)C(=O)NC2=CC(=O)C(NCCOCCOC3OC(CO)C(O)C(O)C3O)=C(CC(C)CC(OC)C(O)C(C)C=C(C)C1OC(N)=O)C2=O (stereo not drawn) [compound 28, 17-demethoxy-17-{[2-(2-β-galactopyranosylethyl)ethyl]amino}geldanamycin] | > 22000 nM | > 15000 nM | > 13000 nM | > 11000 nM | – |
| COC1C=CC=C(C)C(=O)NC2=CC(=O)C(NCCOC3OC(CO)C(OC4OC(CO)C(O)C(O)C4O)C(O)C3O)=C(CC(C)CC(OC)C(O)C(C)C=C(C)C1OC(N)=O)C2=O (stereo not drawn) [compound 29, 17-demethoxy-17-[(2-β-lactopyranosylethyl)amino]geldanamycin] | > 22000 nM | > 25000 nM | > 25000 nM | > 20000 nM | – |
